Reference: patent US12187717B2, “Compound and use thereof in treating autoimmune diseases” (PARENCHYMA BIOTECH INC., priority 2022, dated 2025)

Columns and labels:
[1] = tested on: CYP1A1; test: Induction of CYP1A1 mRNA expression in HepG2 (real-time PCR); assay type: cell-based, Human; conditions: HepG2, 1 μM, 24 hours, vs control (vehicle)
Method: In order to confirm target specificity of the compounds of an embodiment of the present invention prepared as above, it was confirmed whether the expression levels of CYP1A1 mRNA and CYP1A1 protein, which are AHR target genes, were increased.
After recovering HepG2 under culture in DMEM-fetal bovine serum (FBS) 10% medium and then confirming that the survival rate is 97% or more through trypan blue staining, the recovered product was centrifuged at a speed of 1200 rpm for 5 minutes at room temperature, and the cells were prepared by resuspending them in DMEM-fetal calf serum 10% medium at 3×10^5 cells/ml. Thereafter, the cells were dispensed onto a 60 mm dish by 3 ml, and each dish was treated with 50 μl of Compounds 6, 21, 32 and 39 at a concentration of 1 μM diluted in DMEM medium, and then cultured in a cell incubator (5% CO2 incubator) for 24 hours. As a control, 50 μl of 0.05% dimethylsulfoxide (DMSO)/DMEM medium was used for treatment.
(§1) The cultured cells were recovered to prepare an mRNA sample. […] From the separated RNA, cDNA was synthesized by reverse transcription, and the expression of CYP1A1 was confirmed through a real-time polymerase chain reaction (PCR) using iQ SYBR-Green Supermix (Bio-rad) in a CFX96 (Bio-rad) detection system. […] Herein, one (1) fold was set using the control.
(§2) The real-time polymerase chain reaction was performed under the conditions of 45 cycles at an annealing temperature of 58° C., wherein the following primer sequences were used.

[2] = tested on: IL-6; test: IL-6 production of A549 epithelial cells by IL-1β stimulation; assay type: cell-based, Human; conditions: A549, 5 μM, 48 hours then IL-1β 24 hours, vs control
Method: In order to assess the inhibitory effects of production of IL-6 by the compounds of the present invention prepared as above, an IL-6 production test of epithelial cells by stimulation of IL-1β was performed.
After recovering A549 cells under culture in DMEM-fetal bovine serum (FBS) 10% medium and confirming that the survival rate is 97% or more through trypan blue staining, the recovered product was centrifuged at a speed of 1200 rpm for 5 minutes at room temperature, and the cells were prepared by resuspending them in DMEM-10% fetal bovine serum medium at 1×10^6 cells/3 ml. Thereafter, the cells were dispensed by 3 ml onto a 60 mm plate, and each dish was treated with 50 μl of Compounds 6, 9, 21, 32 and 39 at a concentration of 5 μM diluted in DMEM medium, and then cultured in a cell incubator (5% CO2 incubator) for 48 hours. Then, the cells were treated with 50 μl of human recombinant IL-1β at a concentration of 12.5 ng/ml diluted in DMEM medium, followed by culturing the same in a cell incubator (5% CO2 incubator) for 24 hours. As a control, 50 μl of 0.05% dimethylsulfoxide (DMSO)/DMEM medium was used for treatment.
as §1, §2

[3] = tested on: CYP1A1; test: Induction of CYP1A1 protein expression in HepG2 (7-ethoxyresorufin/resorufin); assay type: cell-based, Human; conditions: HepG2, 1 μM, 24 hours, vs control (vehicle)
Method: After recovering HepG2 under culture in DMEM-fetal bovine serum (FBS) 10% medium and then confirming that the survival rate is 97% or more through trypan blue staining, the recovered product was centrifuged at a speed of 1200 rpm for 5 minutes at room temperature, and the cells were prepared by resuspending them in DMEM-fetal calf serum 10% medium at 1.5×10^5 cells/ml.
Thereafter, the cells were dispensed onto a 96-well plate by 200 μl, and each plate was treated with 3 μl of Compounds 6, 21, 32 and 39 at a concentration of 1 μM diluted in DMEM medium, and then cultured in a cell incubator (5% CO2 incubator) for 24 hours. As a control, 3 μl of 0.05% dimethylsulfoxide (DMSO)/DMEM medium was used for treatment.
After 24 hours, the medium of the plate was discarded, washed with dPBS, treated with 100 μl of 2 μM 7-ethoxyresorufin, and cultured in a cell incubator (5% CO2 incubator) for 30 minutes. After 30 minutes, each 75 μl of fluorescamine (150 μg/ml) was treated, then resorufine excitation was measured at 535 nm and emission at 590 nm. The standard curve was measured and used with 0 to 50 pmol of resorufin solution.
After measurement, all solutions were removed, followed by treating the same with 25 μl of 0.5 M sodium hydroxide (NaOH), the cells were scraped and reacted in a shaker at room temperature for 15 minutes.
After 15 minutes, protein was quantified using a Bradford method, and a value was obtained using a calculation formula (sample resorufin amount/sample protein amount), and then one (1) fold was set using the control.

[4] = tested on: Foxp3-expressing regulatory T cells (Treg); test: Production of Foxp3-expressing regulatory T cells from naive CD4 T cells (flow cytometry); assay type: cell-based, C57BL/6 mice; conditions: 2.5 μM, 3 days, compared to Vehicle
Method: The spleen of C57BL/6 mice (8 to 12 weeks old, female) was excised, pulverized by adding RPMI medium, and then passed through a 40 μm cell strainer (BD Falcon), thereby obtaining a single cell suspension. The single cell suspension was centrifuged (1200 rpm, 5 minutes), and after discarding the supernatant, 1 ml of ACK lysis buffer was added, followed by stirring for 1 minute and then washing the same with RPMI medium. After the single cell suspension was centrifuged, T-cells were separated using a Mouse CD4 Naive T cell Enrichment Kit (Invitrogen). The separated T-cells were prepared by resuspending them in RPMI-fetal bovine serum (FBS) 10%+2-ME (mercaptoethanol) medium at 1×10^6/ml. For T-cell activation, 5 μg/ml anti-CD3 (eBioscience™) was dispensed by 100 μl onto a 96-well plate, reacted in a cell incubator (37° C., 5% CO2 incubator) for 4 hours, and washed with phosphate buffered saline to prepare the plate. The T-cells were dispensed by 200 μl onto the prepared plate, and each well was treated with 2 μg/ml of anti-CD28 (eBioscience™), 2 ng/ml of TGFβ-1 (R&D systems), and 100 U/ml of IL-2. Each 5 μl of Compounds 6 and 9 at a concentration of 2.5 μM diluted in RPMI-fetal bovine serum 10%+2-ME medium was used for treatment, followed by culturing the same in a cell incubator (37° C., 5% CO2 incubator) for 3 days. […]
In order to confirm the expression of Foxp3 protein, the recovered cells were placed in a 5 ml FACS tube (BD Falcon) and washed with 1 ml of phosphate buffered saline. […] The cells were washed twice with the Permeabilization buffer, suspended in 0.3 ml of FACS buffer, and measured by flow cytometry.
The promotion effects of Compound 6 and Comparative Example 1 on the production of “FoxP3-expressing regulatory T cells,” which play an important role in maintaining immune tolerance, were compared (FIG. 24). […] After 3 days, in order to confirm the effects of production of the regulatory T cells, the cultured cells were recovered and Foxp3 protein expression was measured in the same manner as in FIG. 4.

[5] = biological target: CYP2C9 (Homo sapiens, UniProt P11712); test: CYP isoenzyme activity; assay type: in vitro ADME; conditions: 0.1 μM
[6] = biological target: CYP2C19 (Homo sapiens, UniProt P33261); test: CYP isoenzyme activity; assay type: in vitro ADME; conditions: 0.1 μM
[7] = biological target: T1, CYP1A2 (Homo sapiens, UniProt P05177); test: CYP isoenzyme activity; assay type: in vitro ADME; conditions: 0.1 μM
T1 sequence (P05177 1-516): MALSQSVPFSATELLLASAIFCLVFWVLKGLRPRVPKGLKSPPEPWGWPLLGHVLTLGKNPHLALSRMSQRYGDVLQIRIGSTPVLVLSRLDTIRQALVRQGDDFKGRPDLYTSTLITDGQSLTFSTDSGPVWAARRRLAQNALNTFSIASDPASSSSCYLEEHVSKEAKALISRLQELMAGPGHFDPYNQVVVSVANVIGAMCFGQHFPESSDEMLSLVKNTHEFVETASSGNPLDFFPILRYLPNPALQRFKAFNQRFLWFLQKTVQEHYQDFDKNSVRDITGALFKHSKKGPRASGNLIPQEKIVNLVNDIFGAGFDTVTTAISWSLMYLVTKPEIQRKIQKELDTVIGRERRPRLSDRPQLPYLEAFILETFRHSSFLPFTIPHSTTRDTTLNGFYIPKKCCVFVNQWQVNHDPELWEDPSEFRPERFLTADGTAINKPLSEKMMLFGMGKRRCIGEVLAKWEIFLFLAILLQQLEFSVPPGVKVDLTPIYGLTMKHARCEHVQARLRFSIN

CYP2C9, sequence (P11712 whole entry): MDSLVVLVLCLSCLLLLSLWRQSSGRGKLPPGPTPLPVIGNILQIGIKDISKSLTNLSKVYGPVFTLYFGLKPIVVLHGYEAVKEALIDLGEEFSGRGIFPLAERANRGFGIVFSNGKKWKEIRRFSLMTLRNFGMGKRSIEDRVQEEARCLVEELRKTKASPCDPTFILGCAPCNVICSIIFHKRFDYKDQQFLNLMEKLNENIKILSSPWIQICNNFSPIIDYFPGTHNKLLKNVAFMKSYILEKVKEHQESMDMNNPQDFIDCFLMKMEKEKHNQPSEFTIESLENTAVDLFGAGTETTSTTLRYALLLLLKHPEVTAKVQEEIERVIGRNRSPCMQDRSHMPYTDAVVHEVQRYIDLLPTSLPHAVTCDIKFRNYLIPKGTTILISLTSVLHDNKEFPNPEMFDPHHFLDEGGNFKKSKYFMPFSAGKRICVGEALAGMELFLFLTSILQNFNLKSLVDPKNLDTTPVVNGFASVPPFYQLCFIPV
CYP2C19, sequence (P33261 whole entry): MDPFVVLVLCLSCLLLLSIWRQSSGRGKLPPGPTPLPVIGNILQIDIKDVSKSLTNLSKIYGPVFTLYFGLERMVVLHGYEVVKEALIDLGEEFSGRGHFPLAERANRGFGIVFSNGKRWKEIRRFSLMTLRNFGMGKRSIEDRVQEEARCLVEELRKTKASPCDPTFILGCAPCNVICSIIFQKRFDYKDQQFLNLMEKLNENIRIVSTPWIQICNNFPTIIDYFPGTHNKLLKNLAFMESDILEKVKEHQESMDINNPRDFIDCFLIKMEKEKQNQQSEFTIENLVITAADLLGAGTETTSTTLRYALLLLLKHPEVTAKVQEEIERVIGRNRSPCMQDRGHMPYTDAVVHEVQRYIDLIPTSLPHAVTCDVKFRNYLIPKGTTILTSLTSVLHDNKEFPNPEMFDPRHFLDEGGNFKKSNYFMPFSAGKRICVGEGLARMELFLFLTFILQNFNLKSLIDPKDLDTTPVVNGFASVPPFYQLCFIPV

Row | SMILES | CYP1A1 mRNA expression level [1] | IL-6 production of A549 by IL-1β stimulation [2] | CYP1A1 protein expression level [3] | production of Foxp3-expressing regulatory T cells [4] | CYP2C9 activity [5] | CYP2C19 activity [6] | CYP1A2 activity [7]
1 | O=C(Cc1c[nH]c2ccc(O)cc12)Nc1nc2ccc(N3CCOCC3)cc2s1 [Compound 32, 2-(5-hydroxy-1H-indol-3-yl)-N-(6-morpholinobenzo[d]thiazol-2-yl)acetamide] | significantly induced | significantly reduced | significantly higher | – | – | – | –
2 | COc1ccc2[nH]cc(CC(=O)Nc3nc4ccc(N5CCOCC5)cc4s3)c2c1 [Compound 39, 2-(5-methoxy-1H-indol-3-yl)-N-(6-morpholinobenzo[d]thiazol-2-yl)acetamide] | significantly induced | significantly reduced | significantly higher | – | – | – | –
3 | CN1CCN(c2ccc3nc(NC(=O)Cc4c[nH]c5ccc(Cl)cc45)sc3c2)CC1 [Compound 9, 2-(5-chloro-1H-indol-3-yl)-N-(6-(4-methylpiperazine-1-yl)benzo[d]thiazol-2-yl)acetamide] | – | significantly reduced | – | markedly increased | – | – | –
4 | Cn1cc(CC(=O)Nc2nc3ccc(N4CCOCC4)cc3s2)c2cc(Cl)ccc21 [Compound 21, 2-(5-chloro-1-methyl-1H-indol-3-yl)-N-(6-morpholinobenzo[d]thiazol-2-yl)acetamide] | significantly induced | significantly reduced | significantly higher | – | – | – | –
5 | CC(=O)N1CCN(c2ccc(OCC3COC(Cn4ccnc4)(c4ccc(Cl)cc4Cl)O3)cc2)CC1 (centres unmarked) [Ketoconazole] | – | – | – | – | 98.6 % of Control Activity | 96.7 % of Control Activity | 95.4 % of Control Activity
